Source: patent US8461083B2, “Herbicidal compounds” (Syngenta Limited, priority 2008, dated 2013)

Columns and labels:
Type in all cases: in vivo
[1] = tested on: Alopecurus myosuroides (ALOMY); assay: Post-emergence herbicidal glasshouse test; settings: post-emergence (sprayed after 8 days cultivation), evaluated after 13 days, 100=total damage to plant, 0=no damage to plant; for POST Application ALOMY, damage to plant: 1000 g/ha; for pest or weed control at 1000 g/ha: Alopecurus myosuroides, 312 h, read-out: POST Application ALOMY, damage to plant
Protocol: (§1) Seeds of a variety of test species were sown in standard soil in pots (Alopecurus myosuroides (ALOMY), Setaria faberi (SETFA), Echinochloa crus-galli (ECHCG), Solanum nigrum (SOLNI) and Amaranthus retoflexus (AMARE)). After cultivation for one day (pre-emergence) or after 8 days cultivation (post-emergence) under controlled conditions in a glasshouse (at 24/16° C., day/night; 14 hours light; 65% humidity), the plants were sprayed with an aqueous spray solution derived from the formulation of the technical active ingredient in acetone/water (50:50) solution containing 0.5% Tween 20 (polyoxyethelyene sorbitan monolaurate, CAS RN 9005-64-5). Compounds were applied at 1000 g/ha. The test plants were then grown in a glasshouse under controlled conditions in a glasshouse (at 24/16° C., day/night; 14 hours light; 65% humidity) and watered twice daily. After 13 days for pre and post-emergence, the test was evaluated (100=total damage to plant; 0=no damage to plant).

[2] = tested on: Amaranthus retoflexus (AMARE); assay: Post-emergence herbicidal glasshouse test; settings: post-emergence (sprayed after 8 days cultivation), evaluated after 13 days, 100=total damage to plant, 0=no damage to plant; for POST Application AMARE, damage to plant: 1000 g/ha; for pest or weed control at 1000 g/ha: Amaranthus retroflexus, 312 h, read-out: POST Application AMARE, damage to plant
Protocol: as §1

[3] = tested on: Echinochloa crus-galli (ECHCG); assay: Post-emergence herbicidal glasshouse test; settings: post-emergence (sprayed after 8 days cultivation), evaluated after 13 days, 100=total damage to plant, 0=no damage to plant; for POST Application ECHCG, damage to plant: 1000 g/ha; for pest or weed control at 1000 g/ha: Echinochloa crus-galli, 312 h, read-out: POST Application ECHCG, damage to plant
Protocol: as §1

[4] = tested on: Setaria faberi (SETFA); assay: Post-emergence herbicidal glasshouse test; settings: post-emergence (sprayed after 8 days cultivation), evaluated after 13 days, 100=total damage to plant, 0=no damage to plant; for POST Application SETFA, damage to plant: 1000 g/ha; for pest or weed control at 1000 g/ha: Setaria faberi, 312 h, read-out: POST Application SETFA, damage to plant
Protocol: as §1

[5] = tested on: Solanum nigrum (SOLNI); assay: Post-emergence herbicidal glasshouse test; settings: post-emergence (sprayed after 8 days cultivation), evaluated after 13 days, 100=total damage to plant, 0=no damage to plant; for POST Application SOLNI, damage to plant: 1000 g/ha; for pest or weed control at 1000 g/ha: Solanum nigrum, 312 h, read-out: POST Application SOLNI, damage to plant
Protocol: as §1

[6] = tested on: Alopecurus myosuroides (ALOMY); assay: Pre-emergence herbicidal glasshouse test; settings: pre-emergence (sprayed after one day cultivation), evaluated after 13 days, 100=total damage to plant, 0=no damage to plant; for PRE Application ALOMY, damage to plant: 1000 g/ha; for pest or weed control at 1000 g/ha: Alopecurus myosuroides, 312 h, read-out: PRE Application ALOMY, damage to plant
Protocol: as §1

[7] = tested on: Amaranthus retoflexus (AMARE); assay: Pre-emergence herbicidal glasshouse test; settings: pre-emergence (sprayed after one day cultivation), evaluated after 13 days, 100=total damage to plant, 0=no damage to plant; for PRE Application AMARE, damage to plant: 1000 g/ha; for pest or weed control at 1000 g/ha: Amaranthus retroflexus, 312 h, read-out: PRE Application AMARE, damage to plant
Protocol: as §1

[8] = tested on: Echinochloa crus-galli (ECHCG); assay: Pre-emergence herbicidal glasshouse test; settings: pre-emergence (sprayed after one day cultivation), evaluated after 13 days, 100=total damage to plant, 0=no damage to plant; for PRE Application ECHCG, damage to plant: 1000 g/ha; for pest or weed control at 1000 g/ha: Echinochloa crus-galli, 312 h, read-out: PRE Application ECHCG, damage to plant
Protocol: as §1

[9] = tested on: Setaria faberi (SETFA); assay: Pre-emergence herbicidal glasshouse test; settings: pre-emergence (sprayed after one day cultivation), evaluated after 13 days, 100=total damage to plant, 0=no damage to plant; for PRE Application SETFA, damage to plant: 1000 g/ha; for pest or weed control at 1000 g/ha: Setaria faberi, 312 h, read-out: PRE Application SETFA, damage to plant
Protocol: as §1

[10] = tested on: Solanum nigrum (SOLNI); assay: Pre-emergence herbicidal glasshouse test; settings: pre-emergence (sprayed after one day cultivation), evaluated after 13 days, 100=total damage to plant, 0=no damage to plant; for PRE Application SOLNI, damage to plant: 1000 g/ha; for pest or weed control at 1000 g/ha: Solanum nigrum, 312 h, read-out: PRE Application SOLNI, damage to plant
Protocol: as §1

Row | Structure (SMILES) | POST Application ALOMY, damage to plant [1] | POST Application AMARE, damage to plant [2] | POST Application ECHCG, damage to plant [3] | POST Application SETFA, damage to plant [4] | POST Application SOLNI, damage to plant [5] | PRE Application ALOMY, damage to plant [6] | PRE Application AMARE, damage to plant [7] | PRE Application ECHCG, damage to plant [8] | PRE Application SETFA, damage to plant [9] | PRE Application SOLNI, damage to plant [10] | pest or weed control at 1000 g/ha [1] [%] | pest or weed control at 1000 g/ha [2] [%] | pest or weed control at 1000 g/ha [3] [%] | pest or weed control at 1000 g/ha [4] [%] | pest or weed control at 1000 g/ha [5] [%] | pest or weed control at 1000 g/ha [6] [%] | pest or weed control at 1000 g/ha [7] [%] | pest or weed control at 1000 g/ha [8] [%] | pest or weed control at 1000 g/ha [9] [%] | pest or weed control at 1000 g/ha [10] [%]
1 | C#CCNc1nc2nc(C(F)(F)F)c(C(=O)C3C(=O)CCCC3=O)cc2cc1F [Compound 1.103] | 70 | 80 | 80 | 90 | 90 | 40 | 80 | 100 | 100 | 100 |  |  |  |  |  |  |  |  |  | 
2 | CCNc1nc2nc(C(F)(F)F)c(C(=O)C3C(=O)CCCC3=O)cc2cc1F [Compound 1.84] |  |  |  |  |  |  |  |  |  |  | 70 | 80 | 80 | 80 | 80 | 60 | 100 | 100 | 100 | 100
3 | O=C(c1cc2ccc(CCF)nc2nc1C(F)(F)F)C1C(=O)C2CCC(C2)C1=O (stereo not drawn) [Compound 3.10] | 80 | 100 | 90 | 90 | 90 | 70 | 70 | 100 | 90 | 100 |  |  |  |  |  |  |  |  |  | 
4 | O=C1CCCC(=O)C1C(=O)c1cc2ccc(CF)nc2nc1C(F)(F)F [Compound 1.11] |  |  |  |  |  |  |  |  |  |  | 70 | 100 | 90 | 90 | 100 | 60 | 80 | 100 | 100 | 100
5 | CCc1nc2nc(C(F)(F)F)ccc2cc1C(=O)C1C(=O)CCCC1=O [Compound 1.107, 2-[2-ethyl-7-trifluoromethyl-[1,8]-naphthyridine-3-carbony]-cyclohexane-1,3-dione] |  |  |  |  |  |  |  |  |  |  | 50 | 100 | 80 | 90 | 100 | 30 | 100 | 100 | 100 | 90
6 | Cc1nc2nc(C(F)(F)Cl)c(C(=O)C3C(=O)CCCC3=O)cc2cc1F [Compound 1.87, 2-(2-chlorodifluoromethyl-6-fluoro-7-methyl-[1,8]-naphthyridine-3-carbonyl)-cyclohexane-1,3-dione] | 70 | 80 | 90 | 80 | 90 | 60 | 100 | 100 | 100 | 100 |  |  |  |  |  |  |  |  |  | 
7 | Cc1nc2nc(C(F)(F)F)c(C(=O)C3C(=O)CCCC3=O)cc2c(C)c1F [Compound 1.88, 2-[5,7-dimethyl-6-fluoro-2-trifluoromethyl-[1,8]-naphthyridine-3-carbony]-cyclohexane-1,3-dione] |  |  |  |  |  |  |  |  |  |  | 30 | 100 | 90 | 80 | 90 | 40 | 90 | 100 | 100 | 100
8 | CC(F)c1ccc2cc(C(=O)C3C(=O)CCCC3=O)c(C(F)(F)F)nc2n1 (stereo not drawn) [Compound 1.35, 2-[7-(1-fluoroethyl)-2-trifluoromethyl-[1,8]-naphthyridine-3-carbony]-cyclohexane-1,3-dione] | 90 | 100 | 90 | 90 | 90 | 70 | 100 | 100 | 100 | 100 |  |  |  |  |  |  |  |  |  | 
9 | CCOCCn1c(=O)ccc2cc(C(=O)C3C(=O)CCCC3=O)c(C(F)(F)F)nc21 [Compound 2.16, 2-{8-(2-ethoxyethyl)-7-oxo-7,8-dihydro-2-trifluoromethyl-[1,8]-naphthyridine-3-carbony}-cyclohexane-1,3-dione] | 90 | 70 | 90 | 90 | 90 | 60 | 90 | 90 | 90 | 90 |  |  |  |  |  |  |  |  |  | 
10 | CC(C)(C)C(=O)Cn1c(=O)ccc2cc(C(=O)C3C(=O)CCCC3=O)c(C(F)(F)F)nc21 [Compound 2.7, 2-{8-(3,3-dimethyl-2-oxo-butyl)-7-oxo-7,8-dihydro-2-trifluoromethyl-[1,8]-naphthyridine-3-carbony}-cyclohexane-1,3-dione] | 40 | 70 | 70 | 70 | 100 | 30 | 60 | 80 | 40 | 100 |  |  |  |  |  |  |  |  |  | 
11 | CC(F)(F)c1ccc2cc(C(=O)C3C(=O)CCCC3=O)c(C(F)(F)F)nc2n1 [Compound 1.36, 2-[7-(1,1-difluoroethyl)-2-trifluoromethyl-[1,8]-naphthyridine-3-carbony]-cyclohexane-1,3-dione] | 90 | 100 | 90 | 90 | 100 | 70 | 100 | 90 | 100 | 100 |  |  |  |  |  |  |  |  |  | 
12 | O=C1CCCC(=O)C1C(=O)c1cc2ccc(Oc3ccccc3)nc2nc1C(F)(F)F [Compound 1.17, 2-(7-phenoxy-2-trifluoromethyl-[1,8]-naphthyridine-3-carbonyl)-cyclohexane-1,3-dione] |  |  |  |  |  |  |  |  |  |  | 90 | 70 | 90 | 100 | 100 | 100 | 100 | 100 | 100 | 100
